According to PubChem BioAssay AID2060487 (Molecular Pharmacology Branch, DTP, NCI, 2025):

Test system: 997537-175-T-J1-PDC complex spheroid viability
Experiment: Anticancer human tumor 997537-175-T-J1-PDC patient-derived colon adenocarcinoma cell line growth inhibition [GQUAD]
Settings: for IC50: curve of first compound; for viability, T/C: stronger effect = lower value
How it was run: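 Multi-cell-type spheroids of tumor cells with HUVEC and mesenchymal stem cells, treated with drug combinations. Concentrations descend in half-log steps from near clinical Cmax, or from 10 microM where Cmax is unknown; viability read-out.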
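Also: spheroids exposed to the agents for 7 days.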
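For viability, T/C in this document: 100% = DMSO vehicle control viability.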

SMILES: COc1cccc2c1C(=O)c1c(O)c3c(c(O)c1C2=O)CC(O)(C(=O)CO)CC3OC1CC(N)C(O)C(C)O1 (configuration not stated) + CN(C)c1ccc(Nc2c3ccc(NC(=O)CCN4CCCC4)cc3nc3cc(NC(=O)CCN4CCCC4)ccc23)cc1
- IC50 (second compound 0.0316 µM): 6.55 µM
- IC50 (second compound 0.1 µM): 8.54 µM
- IC50 (second compound 0.316 µM): > 10 µM
- IC50 (second compound 1 µM): > 10 µM
- IC50 (second compound 3.16 µM): > 10 µM
- IC50 (second compound 10 µM): > 10 µM
- viability, T/C (second compound 0.0316 µM, first compound 0.0316 µM): 98%
- viability, T/C (second compound 0.0316 µM, first compound 0.1 µM): 88.9%
- viability, T/C (second compound 0.0316 µM, first compound 0.316 µM): 99.1%
- viability, T/C (second compound 0.0316 µM, first compound 1 µM): 96.3%
- viability, T/C (second compound 0.0316 µM, first compound 3.16 µM): 71.7%
- viability, T/C (second compound 0.0316 µM, first compound 10 µM): 37.4%
- viability, T/C (second compound 0.1 µM, first compound 0.0316 µM): 111%
- viability, T/C (second compound 0.1 µM, first compound 0.1 µM): 88.3%
- viability, T/C (second compound 0.1 µM, first compound 0.316 µM): 77.6%
- viability, T/C (second compound 0.1 µM, first compound 1 µM): 94.8%
- viability, T/C (second compound 0.1 µM, first compound 3.16 µM): 96.2%
- viability, T/C (second compound 0.1 µM, first compound 10 µM): 42.9%
- viability, T/C (second compound 0.316 µM, first compound 0.0316 µM): 89.5%
- viability, T/C (second compound 0.316 µM, first compound 0.1 µM): 88.5%
- viability, T/C (second compound 0.316 µM, first compound 0.316 µM): 101%
- viability, T/C (second compound 0.316 µM, first compound 1 µM): 102%
- viability, T/C (second compound 0.316 µM, first compound 3.16 µM): 94.6%
- viability, T/C (second compound 0.316 µM, first compound 10 µM): 56.5%
- viability, T/C (second compound 1 µM, first compound 0.0316 µM): 63.7%
- viability, T/C (second compound 1 µM, first compound 0.1 µM): 86.7%
- viability, T/C (second compound 1 µM, first compound 0.316 µM): 101%
- viability, T/C (second compound 1 µM, first compound 1 µM): 83.8%
- viability, T/C (second compound 1 µM, first compound 3.16 µM): 97%
- viability, T/C (second compound 1 µM, first compound 10 µM): 51.5%
- viability, T/C (second compound 3.16 µM, first compound 0.0316 µM): 74.8%
- viability, T/C (second compound 3.16 µM, first compound 0.1 µM): 77.1%
- viability, T/C (second compound 3.16 µM, first compound 0.316 µM): 107%
- viability, T/C (second compound 3.16 µM, first compound 1 µM): 90%
- viability, T/C (second compound 3.16 µM, first compound 3.16 µM): 99%
- viability, T/C (second compound 3.16 µM, first compound 10 µM): 67.3%
- viability, T/C (second compound 10 µM, first compound 0.0316 µM): 94.1%
- viability, T/C (second compound 10 µM, first compound 0.1 µM): 84.2%
- viability, T/C (second compound 10 µM, first compound 0.316 µM): 102%
- viability, T/C (second compound 10 µM, first compound 1 µM): 83.3%
- viability, T/C (second compound 10 µM, first compound 3.16 µM): 81%
- viability, T/C (second compound 10 µM, first compound 10 µM): 58.2%
